Assay results: PubChem BioAssay (NCI)
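Tested at 5 concentrations; 48 h exposure; 96-well plates; endpoints linearly interpolated, else capped at highest concentration. At the TGI there is no net growth.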

Experiments:
Test in all cases: NCI tumour cell line growth inhibition, 48 h
786-0 renal = tested on: 786-0 renal
ACHN renal = tested on: ACHN renal
CAKI-1 renal = tested on: CAKI-1 renal
CCRF-CEM leukemia = tested on: CCRF-CEM leukemia
COLO 205 colon = tested on: COLO 205 colon
DU-145 prostate = tested on: DU-145 prostate
HCC-2998 colon = tested on: HCC-2998 colon
HCT-116 colon = tested on: HCT-116 colon
HCT-15 colon = tested on: HCT-15 colon
HL-60(TB) leukemia = tested on: HL-60(TB) leukemia
HOP-62 NSCLC = tested on: HOP-62 NSCLC
HS 578T breast = tested on: HS 578T breast
IGROV1 ovarian = tested on: IGROV1 ovarian
K-562 leukemia = tested on: K-562 leukemia
LOX IMVI melanoma = tested on: LOX IMVI melanoma
MALME-3M melanoma = tested on: MALME-3M melanoma
MCF7 breast = tested on: MCF7 breast
MDA-MB-231 breast = tested on: MDA-MB-231 breast
MDA-N = tested on: MDA-N
MOLT-4 leukemia = tested on: MOLT-4 leukemia
NCI-H23 lung = tested on: NCI-H23 lung
NCI-H460 lung = tested on: NCI-H460 lung
NCI/ADR-RES ovarian = tested on: NCI/ADR-RES ovarian
OVCAR-5 ovarian = tested on: OVCAR-5 ovarian
PC-3 prostate = tested on: PC-3 prostate
RPMI-8226 leukemia = tested on: RPMI-8226 leukemia
RXF 393 renal = tested on: RXF 393 renal
SF-268 CNS = tested on: SF-268 CNS
SF-295 CNS = tested on: SF-295 CNS
SF-539 CNS = tested on: SF-539 CNS
SK-MEL-2 melanoma = tested on: SK-MEL-2 melanoma
SK-MEL-5 melanoma = tested on: SK-MEL-5 melanoma
SK-OV-3 ovarian = tested on: SK-OV-3 ovarian
SN12C renal = tested on: SN12C renal
SNB-19 CNS = tested on: SNB-19 CNS
SR leukemia = tested on: SR leukemia
T-47D breast = tested on: T-47D breast
U251 CNS = tested on: U251 CNS
UACC-62 melanoma = tested on: UACC-62 melanoma
UO-31 renal = tested on: UO-31 renal
A498 renal = tested on: A498 renal
A549 NSCLC = tested on: A549 NSCLC
EKVX NSCLC = tested on: EKVX NSCLC
HOP-92 NSCLC = tested on: HOP-92 NSCLC
HT29 colon = tested on: HT29 colon
KM12 colon = tested on: KM12 colon
M14 melanoma = tested on: M14 melanoma
MDA-MB-435 = tested on: MDA-MB-435
NCI-H226 lung = tested on: NCI-H226 lung
NCI-H522 lung = tested on: NCI-H522 lung
OVCAR-3 ovarian = tested on: OVCAR-3 ovarian
OVCAR-4 ovarian = tested on: OVCAR-4 ovarian
OVCAR-8 ovarian = tested on: OVCAR-8 ovarian
SK-MEL-28 melanoma = tested on: SK-MEL-28 melanoma
SNB-75 CNS = tested on: SNB-75 CNS
SW-620 colon = tested on: SW-620 colon
UACC-257 melanoma = tested on: UACC-257 melanoma

Compound: COC(C)(C)[C@@H]1CCCN1C1=C(C)C(=O)OC1
- TGI (786-0 renal): > 100 µM
- TGI (ACHN renal): > 100 µM
- TGI (CAKI-1 renal): > 100 µM
- TGI (CCRF-CEM leukemia): > 100 µM
- TGI (COLO 205 colon): > 100 µM
- TGI (DU-145 prostate): > 100 µM
- TGI (HCC-2998 colon): > 100 µM
- TGI (HCT-116 colon): > 100 µM
- TGI (HCT-15 colon): > 100 µM
- TGI (HL-60(TB) leukemia): > 100 µM
- TGI (HOP-62 NSCLC): > 100 µM
- TGI (HS 578T breast): > 100 µM
- TGI (IGROV1 ovarian): > 100 µM
- TGI (K-562 leukemia): > 100 µM
- TGI (LOX IMVI melanoma): > 100 µM
- TGI (MALME-3M melanoma): > 100 µM
- TGI (MCF7 breast): > 100 µM
- TGI (MDA-MB-231 breast): > 100 µM
- TGI (MDA-N): > 100 µM
- TGI (MOLT-4 leukemia): > 100 µM
- TGI (NCI-H23 lung): > 100 µM
- TGI (NCI-H460 lung): > 100 µM
- TGI (NCI/ADR-RES ovarian): > 100 µM
- TGI (OVCAR-5 ovarian): > 100 µM
- TGI (PC-3 prostate): > 100 µM
- TGI (RPMI-8226 leukemia): > 100 µM
- TGI (RXF 393 renal): > 100 µM
- TGI (SF-268 CNS): > 100 µM
- TGI (SF-295 CNS): > 100 µM
- TGI (SF-539 CNS): > 100 µM
- TGI (SK-MEL-2 melanoma): > 100 µM
- TGI (SK-MEL-5 melanoma): > 100 µM
- TGI (SK-OV-3 ovarian): > 100 µM
- TGI (SN12C renal): > 100 µM
- TGI (SNB-19 CNS): > 100 µM
- TGI (SR leukemia): > 100 µM
- TGI (T-47D breast): > 100 µM
- TGI (U251 CNS): > 100 µM
- TGI (UACC-62 melanoma): > 100 µM
- TGI (UO-31 renal): > 100 µM

Compound: O=[N+]([O-])c1cnc(N(CCO)CCO)s1
- TGI (786-0 renal): > 100 µM
- TGI (A498 renal): > 100 µM
- TGI (A549 NSCLC): > 100 µM
- TGI (ACHN renal): > 100 µM
- TGI (CAKI-1 renal): > 100 µM
- TGI (CCRF-CEM leukemia): > 100 µM
- TGI (COLO 205 colon): > 100 µM
- TGI (DU-145 prostate): > 100 µM
- TGI (EKVX NSCLC): > 100 µM
- TGI (HCC-2998 colon): > 100 µM
- TGI (HCT-116 colon): > 100 µM
- TGI (HCT-15 colon): > 100 µM
- TGI (HL-60(TB) leukemia): > 100 µM
- TGI (HOP-62 NSCLC): > 100 µM
- TGI (HOP-92 NSCLC): > 100 µM
- TGI (HT29 colon): > 100 µM
- TGI (IGROV1 ovarian): > 100 µM
- TGI (K-562 leukemia): > 100 µM
- TGI (KM12 colon): > 100 µM
- TGI (LOX IMVI melanoma): > 100 µM
- TGI (M14 melanoma): > 100 µM
- TGI (MALME-3M melanoma): > 100 µM
- TGI (MCF7 breast): > 100 µM
- TGI (MDA-MB-231 breast): > 100 µM
- TGI (MDA-MB-435): > 100 µM
- TGI (MDA-N): > 100 µM
- TGI (MOLT-4 leukemia): > 100 µM
- TGI (NCI-H226 lung): > 100 µM
- TGI (NCI-H23 lung): > 100 µM
- TGI (NCI-H460 lung): > 100 µM
- TGI (NCI-H522 lung): > 100 µM
- TGI (NCI/ADR-RES ovarian): > 100 µM
- TGI (OVCAR-3 ovarian): > 100 µM
- TGI (OVCAR-4 ovarian): > 100 µM
- TGI (OVCAR-5 ovarian): > 100 µM
- TGI (OVCAR-8 ovarian): > 100 µM
- TGI (PC-3 prostate): > 100 µM
- TGI (RXF 393 renal): > 100 µM
- TGI (SF-268 CNS): > 100 µM
- TGI (SF-295 CNS): > 100 µM
- TGI (SF-539 CNS): > 100 µM
- TGI (SK-MEL-2 melanoma): > 100 µM
- TGI (SK-MEL-28 melanoma): > 100 µM
- TGI (SK-MEL-5 melanoma): > 100 µM
- TGI (SK-OV-3 ovarian): > 100 µM
- TGI (SN12C renal): > 100 µM
- TGI (SNB-19 CNS): > 100 µM
- TGI (SNB-75 CNS): 0.341 µM
- TGI (SR leukemia): > 100 µM
- TGI (SW-620 colon): > 100 µM
- TGI (T-47D breast): > 100 µM
- TGI (U251 CNS): > 100 µM
- TGI (UACC-257 melanoma): > 100 µM
- TGI (UACC-62 melanoma): > 100 µM
- TGI (UO-31 renal): > 100 µM

Compound: CN(C)CCOc1ccc2[nH]c(C(=O)N3CC(CCl)c4c3cc([N+](=O)[O-])c3ccccc43)cc2c1 (stereo not drawn)
- TGI (A498 renal): 24.5 µM
- TGI (CCRF-CEM leukemia): > 100 µM
- TGI (COLO 205 colon): > 100 µM
- TGI (DU-145 prostate): 20.2 µM
- TGI (HL-60(TB) leukemia): > 100 µM
- TGI (K-562 leukemia): > 100 µM
- TGI (KM12 colon): 3.2 µM
- TGI (LOX IMVI melanoma): > 100 µM
- TGI (MDA-N): 48.5 µM
- TGI (NCI-H226 lung): > 100 µM
- TGI (NCI-H23 lung): > 100 µM
- TGI (OVCAR-3 ovarian): 3.68 µM
- TGI (PC-3 prostate): > 100 µM
- TGI (RPMI-8226 leukemia): > 100 µM
- TGI (SK-OV-3 ovarian): 85.5 µM
- TGI (SNB-75 CNS): 3.77 µM
- TGI (SW-620 colon): > 100 µM
- TGI (UO-31 renal): > 100 µM
